ChEMBL document CHEMBL4804286, “3-amino-4-(4-(4 (dimethylcarbamoyl) phenyl)-1,4-diazepan-1-yl) thieno [2,3-b] pyridine-2-carboxamide for use in cancer therapy and formulations comprising the same” (2020)
Several values for one entry are separate records, joined by “and”; a condition that tells them apart may be missing. Equal entries are not always repeated.

Legend:
Set-up in all cases: scale not given: the % may be the effect or the level left
[1] = molecular target: Activin receptor type-1 (Homo sapiens) (UniProt Q04771); assay: Inhibition of human ACVR1 assessed as percent of control at 2000 nM by KINOMEscan assay relative to control
[2] = molecular target: Serine/threonine-protein kinase WNK1 (Homo sapiens) (UniProt Q9H4A3); assay: Inhibition of human WNK1 assessed as percent of control at 2000 nM by KINOMEscan assay relative to control
[3] = molecular target: Fibroblast growth factor receptor 4 (Homo sapiens) (UniProt P22455); assay: Inhibition of human FGFR4 assessed as percent of control at 2000 nM by KINOMEscan assay relative to control
[4] = tested on: Mast/stem cell growth factor receptor Kit (Homo sapiens), P10721 [D816H]; assay: Inhibition of human KIT D816H mutant assessed as percent of control at 2000 nM by KINOMEscan assay relative to control
[5] = tested on: Phosphatidylinositol 4,5-bisphosphate 3-kinase catalytic subunit alpha isoform (Homo sapiens), P42336 [H1047L]; assay: Inhibition of human PIK3CA H1047L mutant assessed as percent of control at 2000 nM by KINOMEscan assay relative to control
[6] = tested on: Tyrosine-protein kinase ABL1 (Homo sapiens), P00519 [UNDEFINED MUTATION]; assay: Inhibition of non-phosphorylated human ABL1 […] mutant assessed as percent of control at 2000 nM by KINOMEscan assay relative to control
[7] = molecular target: Serine/threonine-protein kinase PAK 6 (Homo sapiens) (UniProt Q9NQU5); assay: Inhibition of human PAK6 assessed as percent of control at 2000 nM by KINOMEscan assay relative to control
[8] = molecular target: Mitogen-activated protein kinase 8 (Homo sapiens) (UniProt P45983); assay: Inhibition of human JNK1 assessed as percent of control at 2000 nM by KINOMEscan assay relative to control
[9] = molecular target: Activin receptor type-1-like (Homo sapiens) (UniProt P37023); assay: Inhibition of human ACVRL1 assessed as percent of control at 2000 nM by KINOMEscan assay relative to control
[10] = molecular target: Protein kinase C theta type (Homo sapiens) (UniProt Q04759); assay: Inhibition of human PRKCQ assessed as percent of control at 2000 nM by KINOMEscan assay relative to control
[11] = molecular target: STE20-like serine/threonine-protein kinase (Homo sapiens) (UniProt Q9H2G2); assay: Inhibition of human SLK assessed as percent of control at 2000 nM by KINOMEscan assay relative to control
[12] = molecular target: Serine/threonine-protein kinase Nek11 (Homo sapiens) (UniProt Q8NG66); assay: Inhibition of human NEK11 assessed as percent of control at 2000 nM by KINOMEscan assay relative to control
[13] = molecular target: Cyclin-dependent kinase-like 5 (Homo sapiens) (UniProt O76039); assay: Inhibition of human CDKL5 assessed as percent of control at 2000 nM by KINOMEscan assay relative to control
[14] = molecular target: Serine/threonine-protein kinase PAK 2 (Homo sapiens) (UniProt Q13177); assay: Inhibition of human PAK2 assessed as percent of control at 2000 nM by KINOMEscan assay relative to control
[15] = molecular target: Phosphatidylinositol 4,5-bisphosphate 3-kinase catalytic subunit delta isoform (Homo sapiens) (UniProt O00329); assay: Inhibition of human PIK3CD assessed as percent of control at 2000 nM by KINOMEscan assay relative to control
[16] = molecular target: Calcium/calmodulin-dependent protein kinase type 1G (Homo sapiens) (UniProt Q96NX5); assay: Inhibition of human CAMK1G assessed as percent of control at 2000 nM by KINOMEscan assay relative to control
[17] = molecular target: 5'-AMP-activated protein kinase catalytic subunit alpha-2 (Homo sapiens) (UniProt P54646); assay: Inhibition of human AMPK-alpha2 assessed as percent of control at 2000 nM by KINOMEscan assay relative to control
[18] = molecular target: Tyrosine-protein kinase ABL2 (Homo sapiens) (UniProt P42684); assay: Inhibition of human ABL2 assessed as percent of control at 2000 nM by KINOMEscan assay relative to control
[19] = molecular target: Glycogen synthase kinase-3 alpha (Homo sapiens) (UniProt P49840); assay: Inhibition of human GSK3A assessed as percent of control at 2000 nM by KINOMEscan assay relative to control; conditions: INHIBITOR
[20] = molecular target: STE20/SPS1-related proline-alanine-rich protein kinase (Homo sapiens) (UniProt Q9UEW8); assay: Inhibition of human STK39 assessed as percent of control at 2000 nM by KINOMEscan assay relative to control
[21] = molecular target: Serine/threonine-protein kinase RIO1 (Homo sapiens) (UniProt Q9BRS2); assay: Inhibition of human RIOK1 assessed as percent of control at 2000 nM by KINOMEscan assay relative to control
[22] = molecular target: Macrophage colony-stimulating factor 1 receptor (Homo sapiens) (UniProt P07333); assay: Inhibition of human autoinhibited CSF1R assessed as percent of control at 2000 nM by KINOMEscan assay relative to control
[23] = molecular target: Serine/threonine-protein kinase/endoribonuclease IRE1 (Homo sapiens) (UniProt O75460); assay: Inhibition of human ERN1 assessed as percent of control at 2000 nM by KINOMEscan assay relative to control
[24] = molecular target: Non-receptor tyrosine-protein kinase TNK1 (Homo sapiens) (UniProt Q13470); assay: Inhibition of human TNK1 assessed as percent of control at 2000 nM by KINOMEscan assay relative to control
[25] = molecular target: Dual specificity mitogen-activated protein kinase kinase 7 (Homo sapiens) (UniProt O14733); assay: Inhibition of human MKK7 assessed as percent of control at 2000 nM by KINOMEscan assay relative to control
[26] = molecular target: Tyrosine-protein kinase Srms (Homo sapiens) (UniProt Q9H3Y6); assay: Inhibition of human SRMS assessed as percent of control at 2000 nM by KINOMEscan assay relative to control
[27] = molecular target: Ephrin type-A receptor 1 (Homo sapiens) (UniProt P21709); assay: Inhibition of human EPHA1 assessed as percent of control at 2000 nM by KINOMEscan assay relative to control
[28] = molecular target: Macrophage-stimulating protein receptor (Homo sapiens) (UniProt Q04912); assay: Inhibition of human MST1R assessed as percent of control at 2000 nM by KINOMEscan assay relative to control
[29] = molecular target: Cyclin-dependent kinase 2 (Homo sapiens) (UniProt P24941); assay: Inhibition of human CDK2 assessed as percent of control at 2000 nM by KINOMEscan assay relative to control
[30] = molecular target: Protein kinase C iota type (Homo sapiens) (UniProt P41743); assay: Inhibition of human PRKCI assessed as percent of control at 2000 nM by KINOMEscan assay relative to control
[31] = molecular target: Tyrosine-protein kinase Yes (Homo sapiens) (UniProt P07947); assay: Inhibition of human YES assessed as percent of control at 2000 nM by KINOMEscan assay relative to control

Chain of Glycogen synthase kinase-3 alpha (Homo sapiens) (P49840 2-483 limits assumed): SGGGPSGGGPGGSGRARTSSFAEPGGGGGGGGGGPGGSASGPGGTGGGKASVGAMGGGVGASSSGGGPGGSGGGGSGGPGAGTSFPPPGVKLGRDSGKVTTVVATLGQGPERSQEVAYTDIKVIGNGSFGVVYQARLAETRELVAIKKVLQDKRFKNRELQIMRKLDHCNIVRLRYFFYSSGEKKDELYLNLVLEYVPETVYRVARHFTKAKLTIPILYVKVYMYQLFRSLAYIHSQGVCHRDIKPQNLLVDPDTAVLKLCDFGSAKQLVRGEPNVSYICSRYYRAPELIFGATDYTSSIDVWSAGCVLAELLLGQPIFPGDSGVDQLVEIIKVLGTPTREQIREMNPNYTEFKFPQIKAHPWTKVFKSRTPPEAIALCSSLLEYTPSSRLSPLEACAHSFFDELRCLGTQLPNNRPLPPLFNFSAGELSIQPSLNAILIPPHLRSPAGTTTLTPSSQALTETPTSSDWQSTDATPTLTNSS
Chain of Phosphatidylinositol 4,5-bisphosphate 3-kinase catalytic subunit alpha isoform (Homo sapiens), P42336 [H1047L] (P42336 whole entry H1047L, canonical isoform): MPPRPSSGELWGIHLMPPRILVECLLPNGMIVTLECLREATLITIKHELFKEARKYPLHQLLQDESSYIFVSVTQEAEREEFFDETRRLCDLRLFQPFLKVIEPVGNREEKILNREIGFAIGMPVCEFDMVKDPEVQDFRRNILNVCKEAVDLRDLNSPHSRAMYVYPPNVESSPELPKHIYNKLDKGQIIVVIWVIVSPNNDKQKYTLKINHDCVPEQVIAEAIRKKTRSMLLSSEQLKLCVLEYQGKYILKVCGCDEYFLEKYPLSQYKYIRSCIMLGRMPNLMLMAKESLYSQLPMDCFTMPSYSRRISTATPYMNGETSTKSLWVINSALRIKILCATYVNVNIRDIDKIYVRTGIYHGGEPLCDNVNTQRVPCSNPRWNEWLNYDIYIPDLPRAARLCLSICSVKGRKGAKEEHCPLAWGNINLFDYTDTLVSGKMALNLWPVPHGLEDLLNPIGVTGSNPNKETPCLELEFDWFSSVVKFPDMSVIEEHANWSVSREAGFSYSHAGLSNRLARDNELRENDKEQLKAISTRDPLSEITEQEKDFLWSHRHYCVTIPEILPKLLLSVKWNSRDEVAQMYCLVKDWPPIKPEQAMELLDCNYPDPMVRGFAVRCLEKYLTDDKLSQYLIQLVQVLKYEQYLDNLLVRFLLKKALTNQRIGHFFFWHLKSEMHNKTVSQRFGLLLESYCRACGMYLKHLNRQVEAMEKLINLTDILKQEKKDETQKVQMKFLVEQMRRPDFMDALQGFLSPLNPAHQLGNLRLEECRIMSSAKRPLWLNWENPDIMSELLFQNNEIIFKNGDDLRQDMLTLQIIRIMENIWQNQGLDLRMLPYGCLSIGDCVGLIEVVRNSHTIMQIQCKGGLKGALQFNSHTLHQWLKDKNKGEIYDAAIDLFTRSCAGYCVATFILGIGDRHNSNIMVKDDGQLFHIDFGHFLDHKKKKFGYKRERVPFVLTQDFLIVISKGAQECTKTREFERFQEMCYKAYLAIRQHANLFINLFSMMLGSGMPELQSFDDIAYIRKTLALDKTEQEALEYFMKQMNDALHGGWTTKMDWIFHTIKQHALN
Chain of Serine/threonine-protein kinase WNK1 (Homo sapiens) (Q9H4A3 whole entry, looked up): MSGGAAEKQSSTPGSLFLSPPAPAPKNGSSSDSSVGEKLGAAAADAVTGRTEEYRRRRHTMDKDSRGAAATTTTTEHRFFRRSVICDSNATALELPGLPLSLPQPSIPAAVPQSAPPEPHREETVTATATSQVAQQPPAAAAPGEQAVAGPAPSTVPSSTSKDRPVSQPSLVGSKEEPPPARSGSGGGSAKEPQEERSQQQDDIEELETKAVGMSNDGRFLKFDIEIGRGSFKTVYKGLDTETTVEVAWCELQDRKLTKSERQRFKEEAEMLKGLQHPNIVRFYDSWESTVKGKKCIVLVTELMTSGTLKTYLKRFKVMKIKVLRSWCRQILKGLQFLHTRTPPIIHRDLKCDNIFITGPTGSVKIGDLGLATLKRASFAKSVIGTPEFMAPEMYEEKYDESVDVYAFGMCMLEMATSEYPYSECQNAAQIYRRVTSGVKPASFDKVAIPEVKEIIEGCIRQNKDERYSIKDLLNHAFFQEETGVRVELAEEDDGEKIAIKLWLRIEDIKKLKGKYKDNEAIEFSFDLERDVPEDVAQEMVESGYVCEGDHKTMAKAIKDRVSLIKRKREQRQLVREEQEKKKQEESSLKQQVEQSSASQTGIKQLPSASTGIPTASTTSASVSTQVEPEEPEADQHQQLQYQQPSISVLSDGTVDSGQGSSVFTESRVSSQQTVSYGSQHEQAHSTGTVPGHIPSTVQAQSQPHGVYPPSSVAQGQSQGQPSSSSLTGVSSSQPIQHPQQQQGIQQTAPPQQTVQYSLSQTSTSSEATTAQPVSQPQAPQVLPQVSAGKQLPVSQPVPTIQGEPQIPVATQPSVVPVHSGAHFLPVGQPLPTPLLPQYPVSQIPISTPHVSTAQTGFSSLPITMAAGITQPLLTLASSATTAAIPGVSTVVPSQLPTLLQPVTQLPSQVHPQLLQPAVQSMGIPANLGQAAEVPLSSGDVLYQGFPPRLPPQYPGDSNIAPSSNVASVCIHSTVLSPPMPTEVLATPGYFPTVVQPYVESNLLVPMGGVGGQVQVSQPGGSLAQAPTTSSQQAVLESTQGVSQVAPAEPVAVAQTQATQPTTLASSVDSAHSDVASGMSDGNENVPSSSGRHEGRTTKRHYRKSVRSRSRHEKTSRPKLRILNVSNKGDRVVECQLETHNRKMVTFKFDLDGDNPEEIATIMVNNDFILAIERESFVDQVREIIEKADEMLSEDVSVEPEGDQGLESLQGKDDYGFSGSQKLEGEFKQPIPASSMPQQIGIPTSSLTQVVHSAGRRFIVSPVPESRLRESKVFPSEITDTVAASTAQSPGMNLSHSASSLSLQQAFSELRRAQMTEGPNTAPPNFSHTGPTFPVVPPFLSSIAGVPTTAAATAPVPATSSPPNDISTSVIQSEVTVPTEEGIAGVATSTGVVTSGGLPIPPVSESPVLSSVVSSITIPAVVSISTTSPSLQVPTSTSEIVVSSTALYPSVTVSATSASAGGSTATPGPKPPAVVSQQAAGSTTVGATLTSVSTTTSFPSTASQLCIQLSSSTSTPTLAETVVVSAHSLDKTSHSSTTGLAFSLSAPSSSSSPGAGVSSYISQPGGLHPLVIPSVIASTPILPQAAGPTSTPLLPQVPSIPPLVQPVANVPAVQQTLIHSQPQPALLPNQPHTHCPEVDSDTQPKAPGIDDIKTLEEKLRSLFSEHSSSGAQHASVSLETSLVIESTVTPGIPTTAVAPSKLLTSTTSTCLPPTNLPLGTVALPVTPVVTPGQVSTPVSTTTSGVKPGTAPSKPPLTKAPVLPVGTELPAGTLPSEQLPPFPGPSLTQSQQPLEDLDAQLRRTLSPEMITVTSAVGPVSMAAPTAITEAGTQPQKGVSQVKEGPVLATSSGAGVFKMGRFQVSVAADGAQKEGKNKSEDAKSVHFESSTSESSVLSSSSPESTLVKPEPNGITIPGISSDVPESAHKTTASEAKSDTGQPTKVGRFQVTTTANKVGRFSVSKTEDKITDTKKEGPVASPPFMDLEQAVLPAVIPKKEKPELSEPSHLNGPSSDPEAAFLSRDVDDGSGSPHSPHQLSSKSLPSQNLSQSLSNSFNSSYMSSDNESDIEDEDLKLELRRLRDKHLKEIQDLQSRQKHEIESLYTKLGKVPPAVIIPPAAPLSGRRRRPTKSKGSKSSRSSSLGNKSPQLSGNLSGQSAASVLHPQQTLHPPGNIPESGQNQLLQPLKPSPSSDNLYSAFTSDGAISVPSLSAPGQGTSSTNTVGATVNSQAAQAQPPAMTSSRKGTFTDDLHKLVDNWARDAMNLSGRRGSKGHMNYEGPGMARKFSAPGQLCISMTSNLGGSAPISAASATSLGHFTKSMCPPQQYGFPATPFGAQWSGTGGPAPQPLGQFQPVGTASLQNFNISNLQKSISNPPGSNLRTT
Chain of Mast/stem cell growth factor receptor Kit (Homo sapiens), P10721 [D816H] (P10721 whole entry D816H, canonical isoform): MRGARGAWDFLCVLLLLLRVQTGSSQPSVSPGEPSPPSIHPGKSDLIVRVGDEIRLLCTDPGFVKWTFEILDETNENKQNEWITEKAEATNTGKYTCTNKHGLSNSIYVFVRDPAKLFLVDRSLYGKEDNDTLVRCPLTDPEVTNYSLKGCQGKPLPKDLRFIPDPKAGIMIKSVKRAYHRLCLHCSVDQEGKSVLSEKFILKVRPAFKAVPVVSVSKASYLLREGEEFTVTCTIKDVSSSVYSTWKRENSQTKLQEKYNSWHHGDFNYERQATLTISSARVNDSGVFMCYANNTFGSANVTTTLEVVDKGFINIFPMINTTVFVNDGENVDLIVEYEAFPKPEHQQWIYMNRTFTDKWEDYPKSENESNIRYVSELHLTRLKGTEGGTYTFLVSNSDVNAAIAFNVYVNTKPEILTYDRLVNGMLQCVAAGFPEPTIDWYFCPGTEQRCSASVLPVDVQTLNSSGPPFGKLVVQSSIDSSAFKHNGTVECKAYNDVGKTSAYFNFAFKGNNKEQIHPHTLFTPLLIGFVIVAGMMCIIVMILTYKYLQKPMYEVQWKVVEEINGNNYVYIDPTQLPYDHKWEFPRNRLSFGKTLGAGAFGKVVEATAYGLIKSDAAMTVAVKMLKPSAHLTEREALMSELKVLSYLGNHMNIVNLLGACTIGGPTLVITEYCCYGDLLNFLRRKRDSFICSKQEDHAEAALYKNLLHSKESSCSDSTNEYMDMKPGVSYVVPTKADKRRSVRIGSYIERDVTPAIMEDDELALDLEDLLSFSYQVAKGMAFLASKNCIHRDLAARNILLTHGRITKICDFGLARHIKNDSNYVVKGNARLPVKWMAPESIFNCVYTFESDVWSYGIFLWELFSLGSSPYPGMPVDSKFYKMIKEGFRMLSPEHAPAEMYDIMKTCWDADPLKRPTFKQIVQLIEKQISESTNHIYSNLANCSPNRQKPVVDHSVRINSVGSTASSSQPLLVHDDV

CN(C)C(=O)c1ccc(N2CCCN(c3ccnc4sc(C(N)=O)c(N)c34)CC2)cc1
Activity [1]: 100% | Activity [2]: 100% and 93% | Activity [3]: 100% and 96% | Activity [4]: 91% and 66% | Activity [5]: 94% and 80% | Activity [6]: 100% and 76% | Activity [7]: 82% and 99% | Activity [8]: 68% | Activity ([8]; INHIBITOR): 30% | Activity [9]: 99% and 100% | Activity [10]: 90% and 87% | Activity [11]: 56% and 54% | Activity [12]: 90% and 86% | Activity [13]: 100% and 84% | Activity [14]: 91% and 94% | Activity [15]: 94% and 71% | Activity [16]: 99% | Activity [17]: 80% and 95% | Activity [18]: 85% and 91% | Activity [19]: 31% and 34% | Activity [20]: 93% and 94% | Activity [21]: 100% | Activity [22]: 88% and 83% | Activity [23]: 100% and 80% | Activity [24]: 100% | Activity [25]: 100% and 85% | Activity [26]: 81% and 93% | Activity [27]: 92% and 95% | Activity [28]: 97% and 99% | Activity [29]: 100% and 99% | Activity [30]: 100% | Activity [31]: 99% and 100%
